The structures appear in SMILES notation. “Also recorded” adds a separate entry of the source. Like-named read-outs stand apart in the source and are kept apart here. Square brackets hold non-standard residues; d marks the D form. Peptide text beside a SMILES is read from it. * marks the point of attachment. X5 = C[C@@H](O)[C@H](NC(=O)CCCN1C(=O)CC(*)C1=O)C(=O)N[C@H](Cc1cn(C=O)c2ccccc12)C(=O)N[C@@H](Cc1ccccc1)C(=O)N(C)Cc1ccccc1; Hyp = O=C(O)[C@@H]1C[C@@H](O)CN1

Here are results for ten compounds from patent US5610140A, “Bradykinin receptor antagonists with neurokinin receptor blocking activity” (priority 1994, dated 1997).

For data set [1], the target named is T1, Bradykinin 2 (BK2) receptor (Rattus norvegicus, UniProt P25023).
T1 sequence (P25023 1-396): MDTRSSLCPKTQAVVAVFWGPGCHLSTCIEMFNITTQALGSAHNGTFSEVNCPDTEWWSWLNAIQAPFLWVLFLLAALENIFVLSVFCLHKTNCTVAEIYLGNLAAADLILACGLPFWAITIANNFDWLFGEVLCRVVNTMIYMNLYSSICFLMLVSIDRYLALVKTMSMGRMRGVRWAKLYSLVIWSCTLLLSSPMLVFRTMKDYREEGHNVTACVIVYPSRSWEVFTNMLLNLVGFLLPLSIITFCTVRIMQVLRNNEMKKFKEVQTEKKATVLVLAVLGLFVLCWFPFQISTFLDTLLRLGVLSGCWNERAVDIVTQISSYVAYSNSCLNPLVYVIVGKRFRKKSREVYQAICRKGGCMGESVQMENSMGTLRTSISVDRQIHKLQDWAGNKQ
Put plainly: cell-based.

The target in data set [2] is T1, Bradykinin 2 (BK2) receptor.
In data set [3] the target is T2, Neurokinin 1 (NK1) receptor (Cavia porcellus, UniProt P30547). As to conditions: for NK1 pA2: agonist substance P-O-methyl ester.
T2 sequence (P30547 whole entry): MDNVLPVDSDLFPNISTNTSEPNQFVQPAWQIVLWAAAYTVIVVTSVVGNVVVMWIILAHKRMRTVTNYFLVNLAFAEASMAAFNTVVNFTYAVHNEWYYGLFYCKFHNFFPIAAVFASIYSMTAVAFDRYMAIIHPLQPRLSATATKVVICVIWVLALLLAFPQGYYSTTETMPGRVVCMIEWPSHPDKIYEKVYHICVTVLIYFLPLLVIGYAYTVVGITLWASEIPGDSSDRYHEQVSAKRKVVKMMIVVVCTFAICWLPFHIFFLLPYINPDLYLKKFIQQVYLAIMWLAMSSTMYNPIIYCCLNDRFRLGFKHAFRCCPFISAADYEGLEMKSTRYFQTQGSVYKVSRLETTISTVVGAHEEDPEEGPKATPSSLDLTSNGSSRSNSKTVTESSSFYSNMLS
The target of data set [4] is T2, Neurokinin 1 (NK1) receptor. Description: cell-based.
For data set [5] the following is noted: as reported in the literature; cited from earlier work.
Data set [6] has as its target T3, isolated guinea pig lung membrane (Cavia porcellus, UniProt P30547).
T3 construct: host or cells: guinea pig lung membrane
The settings on record: read-out: binding constant; cited from earlier work.

For data set [7] the following is noted: cited from earlier work.
Data set [8] is described as follows: Water solubility. The class given is physicochemical. The settings on record: in the absence of organic co-solvents.
Data set [9] in a line: In vitro stability in porcine kidney cortical membranes. The class given is in vitro ADME. The settings on record: Pig Kidney membrane preparation diluted 1:10 with PBS. As to the method:
(§1) Plasma samples were prepared by collection of whole blood from healthy male and female human volunteers or guinea pigs. Samples were collected into culture tubes containing sodium heparin, and were then spun at 4° C. at 2000 rpm for ten minutes. Supernatant fractions were removed by aspiration and stored in vials at -20° C. Rat or porcine lung and kidney cortical membranes were prepared using differential centrifugation. Membrane preparations were stored at -20° C. The test compound was diluted to 1 mM concentration in PBS (0.0132 M phosphate, 0.1454 M NaCl, pH 7.2). Ten microliters of this working solution were delivered into a series of Eppendorf tubes, followed by human or guinea pig plasma (90 uL) or PBS as a control blank, and incubated for various time periods. […] Supernatant fractions were removed, filtered through 0.22 uM filters (Millipore) and analyzed by HPLC (C18, 12-80% acetonitrile in water, both containing 0.1% trifluoroacetic acid, monitoring at 214 nm.
(§2) Porcine kidney preparations were diluted 1:10 with PBS; rat kidney preparations were diluted 1:100 with PBS. […] At various time points the reactions were quenched by the addition of 100 uL of ethanol, centrifuged and analyzed by HPLC as described above. The half-life for the disappearance of the HPLC peak was determined using the computer program ENZFIT (Elsevier). […]

A short description of data set [10]: In vitro stability in human plasma. The data set is classed as in vitro ADME. As to the method: as §1, §2
Data set [11] is described as follows: In vitro stability in rat kidney cortical membranes. The data set is classed as in vitro ADME. As to conditions: Rat Kidney membrane preparation diluted 1:100 with PBS. As to the method:
as §1, §2

The target of data set [12] is NK1 receptors (Homo sapiens, UniProt P25103). As to conditions: more potent than FK888; cited from earlier work.
Sequence of NK1 receptors (P25103 whole entry): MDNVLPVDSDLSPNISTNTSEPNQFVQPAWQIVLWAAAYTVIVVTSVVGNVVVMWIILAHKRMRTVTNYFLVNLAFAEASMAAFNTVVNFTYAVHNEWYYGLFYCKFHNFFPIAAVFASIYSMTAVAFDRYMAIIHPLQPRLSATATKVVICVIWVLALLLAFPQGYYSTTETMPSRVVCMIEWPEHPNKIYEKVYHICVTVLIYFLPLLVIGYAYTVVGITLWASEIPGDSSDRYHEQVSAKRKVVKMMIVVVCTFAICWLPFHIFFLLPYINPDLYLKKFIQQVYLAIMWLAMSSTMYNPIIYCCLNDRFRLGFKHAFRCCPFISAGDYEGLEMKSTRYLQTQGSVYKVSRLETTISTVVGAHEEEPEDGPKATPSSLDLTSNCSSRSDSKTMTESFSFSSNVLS
Setting [13] is: guinea pig ileum, recovery of agonist response after wash-off.

T3 sequence (P30547 whole entry): as the sequence (P30547 whole entry) above

Take `CC(C)C[C@H](NC(=O)[C@@H](Cc1ccccc1)NC(=O)[C@H](CSC1CC(=O)N(CCCC(=O)N[C@H](C(=O)N[C@H](Cc2cn(C=O)c3ccccc23)C(=O)N[C@@H](Cc2ccccc2)C(=O)N(C)Cc2ccccc2)[C@@H](C)O)C1=O)NC(=O)[C@H](Cc1ccccc1)NC(=O)CNC(=O)[C@@H]1C[C@@H](O)CN1C(=O)[C@@H]1CCCN1C(=O)[C@H](CCCNC(=N)N)NC(=O)[C@H](N)CCCNC(=N)N)C(=O)N[C@@H](CCCNC(=N)N)C(=O)O` (some centres unmarked) [Compound 2] (H-[dR]RP[Hyp]GFC(X5)[dF]LR-OH): the figures for the Kb in [1] and in data set [4] were 6.31 nM and 126 nM, respectively. The “BK2 % Recovery (wash-off)” value in data set [2] is given as 20%. The “NK1 % recovery (wash-off)” value in [3] was 48%.

Consider `C[C@@H](O)[C@H](NC(=O)CCCCCN1C(=O)CC(SCCO)C1=O)C(=O)N[C@H](Cc1cn(C=O)c2ccccc12)C(=O)N[C@@H](Cc1ccccc1)C(=O)N(C)Cc1ccccc1` (some centres unmarked) [CP-0528], for which the “NK1 % recovery (wash-off)” value in [3] amounted to 80%. In data set [4], the Kb was 316 nM.

Turning to `CN(Cc1ccccc1)C(=O)[C@H](Cc1ccc2ccccc2c1)NC(=O)[C@@H]1C[C@@H](O)CN1C(=O)c1cn(C)c2ccccc12` [FK888], the water solubility result in data set [5] was “poor water solubility”.

As for `CC(=O)N[C@H](C(=O)N[C@H](Cc1c[nH]c2ccccc12)C(=O)N[C@@H](Cc1ccccc1)C(=O)N(C)Cc1ccccc1)[C@@H](C)O` [FR113680, Ac-Thr-D-Trp-Phe-N(CH3)Bn, reference compound], the “NK1 % recovery (wash-off)” value in data set [3] is recorded as 53%. In data set [6], the Ki is 5.8 nM. Further, in data set [4], the Kb was 100 nM. In addition, the in vivo stability entry in data set [7] is “moderate in vivo stability”.

On to `CN(Cc1ccccc1)C(=O)[C@H](Cc1ccc2ccccc2c1)NC(=O)[C@H](CCCCN)NC(=O)c1c[nH]c2ccccc12` [CP-0535], for which, in data set [3] (guinea pig ileum), the “NK1 pA2” value is 7.5. Also, the “NK1 % recovery (wash-off)” value in [3] (setting [13]) came out at 41%. In addition, in [8], the water solubility entry is reported as “poor water solubility”.

For `CC(C)C[C@H](NC(=O)[C@@H](Cc1ccccc1)NC(=O)[C@H](CSC1CC(=O)N(CCCCCCN2C(=O)CC(SC[C@H](NC(=O)[C@H](Cc3ccccc3)NC(=O)CNC(=O)[C@@H]3C[C@@H](O)CN3C(=O)[C@@H]3CCCN3C(=O)[C@H](CCCNC(=N)N)NC(=O)[C@H](N)CCCNC(=N)N)C(=O)N[C@H](Cc3ccccc3)C(=O)N[C@@H](CC(C)C)C(=O)N[C@@H](CCCNC(=N)N)C(=O)O)C2=O)C1=O)NC(=O)[C@H](Cc1ccccc1)NC(=O)CNC(=O)[C@@H]1C[C@@H](O)CN1C(=O)[C@@H]1CCCN1C(=O)[C@H](CCCNC(=N)N)NC(=O)[C@H](N)CCCNC(=N)N)C(=O)N[C@@H](CCCNC(=N)N)C(=O)O` (some centres unmarked) [CP-0127] (HELM PEPTIDE1{[dR].R.P.[Hyp].G.F.C.[dF].L.R}|PEPTIDE2{[dR].R.P.[Hyp].G.F.C.[dF].L.R}|CHEM1{[O=C1CC([*:1])C(=O)N1CCCCCCN1C(=O)CC([*:2])C1=O]}$PEPTIDE1,CHEM1,7:R3-1:R1|PEPTIDE2,CHEM1,7:R3-1:R2$$$V2.0), the Half-life was over 360 min in data set [9], 165 min in data set [10] and 39.6 min in [11].

Consider `NC(N)=NCCC[C@H](NC(=O)[C@H](Cc1ccccc1)NC(=O)[C@@H]1CCCN1C(=O)[C@H](CO)NC(=O)[C@H](Cc1ccccc1)NC(=O)CNC(=O)[C@@H]1CCCN1C(=O)[C@@H]1CCCN1C(=O)[C@@H](N)CCCN=C(N)N)C(=O)O` [Bradykinin] (H-RPPGFSPFR-OH), for which the Half-life worked out at 3 min in data set [9], 27 min in data set [10] and 7.8 min in [11].

Consider `C[C@@H](O)[C@H](NC(=O)CCCN1C(=O)CC(SCCO)C1=O)C(=O)N[C@H](Cc1cn(C=O)c2ccccc12)C(=O)N[C@@H](Cc1ccccc1)C(=O)N(C)Cc1ccccc1` (some centres unmarked) [CP-0529], for which the “NK1 % recovery (wash-off)” value in [3] was determined as 55%. Also, the Kb in data set [4] is 126 nM.

As to `COc1ccccc1CN[C@H]1CCCN[C@H]1c1ccccc1` [CP-99994], the “potency relative to FK888 in binding studies” value in data set [12] is 10 times.

In the case of `CN(Cc1ccccc1)C(=O)[C@H](Cc1ccccc1)NC(=O)[C@H](CCCCN)NC(=O)c1c[nH]c2ccccc12` [CP-0533], in data set [3] (guinea pig ileum), the “NK1 pA2” value stood at 6.3. Also, the “NK1 % recovery (wash-off)” value in [3] (setting [13]) was 73%. The water solubility result in data set [8] is given as “poor solubility in water; also recorded: minimal water solubility”.
